The values that follow come from patent US20200101176A1, “Small Highly Uniform Nanomedicine Compositions for Therapeutic, Imaging and Theranostic Applications” (THE REGENTS OF THE UNIVERSITY OF MICHIGAN, priority 2018, published 2020).

In the test the test system is myocytes. In words: PDT of heart tissue, cell death tracked by PI fluorescence. Particulars: in vivo. From the text:
PI fluorescence is only from myocytes.
FIG. 25 are images showing an embodiment of a non-targeted PDT with Ce6, in accordance with the present inventions.
Turning to FIG. 15, there is shown that PI (a nuclear stain for dead cells) is only present in myocytes (3 different magnified areas).
Turning to FIG. 16, there is shown similar tissue sampling test as FIG. 15, but using non-targeted PDT.

In the case of chlorin e6 [Ce6], the “damage to vasculature / non-target cells after PDT (PI fluorescence)” value is given as “vasculature damage”. In addition, the “damage to vasculature / non-target cells after PDT (PI fluorescence)” value (listed as untargeted Ce6) is “kills everything”.
